In US10793520B2, “Sulfonylaminobenzamide compound and pest control agent” (Nippon Soda Co., Ltd., priority 2016, dated 2020):

Test system: Mythimna separata
Assay: Efficacy test against Mythimna separata (treated artificial feed)
Details: in vivo
Experimental: Five parts of the compound of the present invention, 93.6 parts of dimethylformamide and 1.4 parts of a polyoxyethylene alkyl aryl ether were mixed together and dissolved to obtain an emulsion (1) containing 5% of the active constituent.
The mortality rate was calculated using the following equation. Mortality rate (%)=(number of dead pests/number of test pests)×100
First, 0.8 g of an artificial feed (Insecta LFS, manufactured by Nosan Corporation) and 1 μl of the emulsion (I) were mixed thoroughly, and 0.2 g of the resulting mixture was placed in each of the treatment areas of a plastic test container (volume: 1.4 ml) to complete preparation of a test feed.
Two second-instar larvae of Mythimna separata were inoculated into each treatment area, and the test container was sealed with a plastic lid. The sealed container was placed in a temperature-controlled room at 25° C., and the mortality rate and the amount of feed consumed were determined on the fifth day. The test was repeated. Further, a test performed under the same conditions, but with the exception of excluding the compound of the present invention from the emulsion (1), was used as a control.

SMILES: COC(=O)c1cc(Cl)ccc1NC(=O)c1ccc(C(F)(F)F)cc1NS(=O)(=O)C(F)(F)F [a-60]
- mortality rate against Mythimna separata, or amount of feed consumed relative to control: 100%, or the amount of feed consumed was 10% or less

SMILES: CCOC(=O)c1cc(Br)ccc1NC(=O)c1ccc(C(F)(F)F)cc1NS(=O)(=O)C(F)(F)F [a-61]
- mortality rate against Mythimna separata, or amount of feed consumed relative to control: 100%, or the amount of feed consumed was 10% or less

SMILES: COC(=O)c1cc(I)ccc1NC(=O)c1ccc(C(F)(F)F)cc1NS(=O)(=O)C(F)(F)F [a-62]
- mortality rate against Mythimna separata, or amount of feed consumed relative to control: 100%, or the amount of feed consumed was 10% or less

SMILES: COC(=O)c1ccc(C(F)(F)F)cc1NC(=O)c1ccc(C(F)(F)F)cc1NS(=O)(=O)C(F)(F)F [a-63]
- mortality rate against Mythimna separata, or amount of feed consumed relative to control: 100%, or the amount of feed consumed was 10% or less

SMILES: O=C(Nc1ccc(C(F)(F)F)c(F)c1)c1ccc(C(F)(F)F)cc1NS(=O)(=O)C(F)(F)F [a-64]
- mortality rate against Mythimna separata, or amount of feed consumed relative to control: 100%, or the amount of feed consumed was 10% or less

SMILES: CCC(=O)c1cc(C(F)(F)F)ccc1NC(=O)c1ccc(C(F)(F)F)cc1NS(=O)(=O)C(F)(F)F [a-66]
- mortality rate against Mythimna separata, or amount of feed consumed relative to control: 100%, or the amount of feed consumed was 10% or less

SMILES: COC(=O)c1cc(C#N)ccc1NC(=O)c1ccc(C(F)(F)F)cc1NS(=O)(=O)C(F)(F)F [a-67]
- mortality rate against Mythimna separata, or amount of feed consumed relative to control: 100%, or the amount of feed consumed was 10% or less

SMILES: O=C(Nc1ccc(Br)cc1Cl)c1ccc(C(F)(F)F)cc1NS(=O)(=O)C(F)(F)F [a-68]
- mortality rate against Mythimna separata, or amount of feed consumed relative to control: 100%, or the amount of feed consumed was 10% or less

SMILES: O=C(Nc1ccc(Br)c(Cl)c1)c1ccc(C(F)(F)F)cc1NS(=O)(=O)C(F)(F)F [a-69]
- mortality rate against Mythimna separata, or amount of feed consumed relative to control: 100%, or the amount of feed consumed was 10% or less

SMILES: O=C(Nc1ccc(Cl)c(C(F)(F)F)c1)c1ccc(C(F)(F)F)cc1NS(=O)(=O)C(F)(F)F [a-70]
- mortality rate against Mythimna separata, or amount of feed consumed relative to control: 100%, or the amount of feed consumed was 10% or less

SMILES: COC(=O)c1cc(Cl)cc(Cl)c1NC(=O)c1ccc(C(F)(F)F)cc1NS(=O)(=O)C(F)(F)F [a-71]
- mortality rate against Mythimna separata, or amount of feed consumed relative to control: 100%, or the amount of feed consumed was 10% or less

SMILES: COC(=O)c1cc(Br)ccc1NC(=O)c1ccc(Br)cc1NS(=O)(=O)C(F)(F)F [a-73]
- mortality rate against Mythimna separata, or amount of feed consumed relative to control: 100%, or the amount of feed consumed was 10% or less

SMILES: COC(=O)c1cc([N+](=O)[O-])ccc1NC(=O)c1ccc(C(F)(F)F)cc1NS(=O)(=O)C(F)(F)F [a-75]
- mortality rate against Mythimna separata, or amount of feed consumed relative to control: 100%, or the amount of feed consumed was 10% or less

SMILES: O=C(Nc1ccc(Br)cc1-n1cccn1)c1ccc(C(F)(F)F)cc1NS(=O)(=O)C(F)(F)F [a-76]
- mortality rate against Mythimna separata, or amount of feed consumed relative to control: 100%, or the amount of feed consumed was 10% or less

SMILES: COC(=O)c1cc(F)c(F)cc1NC(=O)c1ccc(C(F)(F)F)cc1NS(=O)(=O)C(F)(F)F [a-78]
- mortality rate against Mythimna separata, or amount of feed consumed relative to control: 100%, or the amount of feed consumed was 10% or less

SMILES: COC(=O)c1cc(I)c(Cl)cc1NC(=O)c1ccc(C(F)(F)F)cc1NS(=O)(=O)C(F)(F)F [a-79]
- mortality rate against Mythimna separata, or amount of feed consumed relative to control: 100%, or the amount of feed consumed was 10% or less

SMILES: O=C(Nc1cc(C(F)(F)F)ccc1-n1cccn1)c1ccc(C(F)(F)F)cc1NS(=O)(=O)C(F)(F)F [a-81]
- mortality rate against Mythimna separata, or amount of feed consumed relative to control: 100%, or the amount of feed consumed was 10% or less

SMILES: COC(=O)c1cc(C(F)(F)F)c(Cl)cc1NC(=O)c1ccc(C(F)(F)F)cc1NS(=O)(=O)C(F)(F)F [a-82]
- mortality rate against Mythimna separata, or amount of feed consumed relative to control: 100%, or the amount of feed consumed was 10% or less

SMILES: COC(=O)c1cc(Br)c(Cl)cc1NC(=O)c1ccc(C(F)(F)F)cc1NS(=O)(=O)C(F)(F)F [a-83]
- mortality rate against Mythimna separata, or amount of feed consumed relative to control: 100%, or the amount of feed consumed was 10% or less

SMILES: COC(=O)c1cc(Br)ccc1NC(=O)c1cc(C(F)(F)F)c(Cl)cc1NS(=O)(=O)C(F)(F)F [a-84]
- mortality rate against Mythimna separata, or amount of feed consumed relative to control: 100%, or the amount of feed consumed was 10% or less

SMILES: COC(=O)c1cc(Br)c(F)cc1NC(=O)c1ccc(C(F)(F)F)cc1NS(=O)(=O)C(F)(F)F [a-85]
- mortality rate against Mythimna separata, or amount of feed consumed relative to control: 100%, or the amount of feed consumed was 10% or less

SMILES: COC(=O)c1cc(C(F)(F)F)c(F)cc1NC(=O)c1ccc(C(F)(F)F)cc1NS(=O)(=O)C(F)(F)F [a-86]
- mortality rate against Mythimna separata, or amount of feed consumed relative to control: 100%, or the amount of feed consumed was 10% or less

SMILES: COC(=O)c1cc(F)c(F)cc1NC(=O)c1cc(F)c(F)cc1NS(=O)(=O)C(F)(F)F [a-87]
- mortality rate against Mythimna separata, or amount of feed consumed relative to control: 100%, or the amount of feed consumed was 10% or less

SMILES: COC(=O)c1cc(F)c(F)cc1NC(=O)c1cc(Br)c(Cl)cc1NS(=O)(=O)C(F)(F)F [a-88]
- mortality rate against Mythimna separata, or amount of feed consumed relative to control: 100%, or the amount of feed consumed was 10% or less

SMILES: COC(=O)c1cc(Cl)c(F)cc1NC(=O)c1ccc(C(F)(F)F)cc1NS(=O)(=O)C(F)(F)F [a-90]
- mortality rate against Mythimna separata, or amount of feed consumed relative to control: 100%, or the amount of feed consumed was 10% or less

SMILES: COC(=O)c1ccc(Cl)cc1NC(=O)c1ccc(C(F)(F)F)cc1NS(=O)(=O)C(F)(F)F [a-92]
- mortality rate against Mythimna separata, or amount of feed consumed relative to control: 100%, or the amount of feed consumed was 10% or less

SMILES: COC(=O)c1cnc(Cl)cc1NC(=O)c1ccc(C(F)(F)F)cc1NS(=O)(=O)C(F)(F)F [a-96]
- mortality rate against Mythimna separata, or amount of feed consumed relative to control: 100%, or the amount of feed consumed was 10% or less

SMILES: COC(=O)c1cc(F)c(F)cc1NC(=O)c1cc(Cl)c(Cl)cc1NS(=O)(=O)C(F)(F)F [a-97]
- mortality rate against Mythimna separata, or amount of feed consumed relative to control: 100%, or the amount of feed consumed was 10% or less

SMILES: COC(=O)c1cc(F)c(F)cc1NC(=O)c1cc(F)c(C(F)(F)F)cc1NS(=O)(=O)C(F)(F)F [a-98]
- mortality rate against Mythimna separata, or amount of feed consumed relative to control: 100%, or the amount of feed consumed was 10% or less

SMILES: COC(=O)c1cc(F)c(F)cc1NC(=O)c1cc(C(F)(F)F)c(F)cc1NS(=O)(=O)C(F)(F)F [a-99]
- mortality rate against Mythimna separata, or amount of feed consumed relative to control: 100%, or the amount of feed consumed was 10% or less

SMILES: COC(=O)c1cc(F)c(F)cc1NC(=O)c1ccc(-c2ccc(C(F)(F)F)nc2)cc1NS(=O)(=O)C(F)(F)F [a-100]
- mortality rate against Mythimna separata, or amount of feed consumed relative to control: 100%, or the amount of feed consumed was 10% or less

SMILES: O=C(Nc1ccc(C(F)(F)F)cc1[N+](=O)[O-])c1ccc(C(F)(F)F)cc1NS(=O)(=O)C(F)(F)F [a-103]
- mortality rate against Mythimna separata, or amount of feed consumed relative to control: 100%, or the amount of feed consumed was 10% or less

SMILES: COC(=O)c1cc(OC(F)(F)F)ccc1NC(=O)c1ccc(C(F)(F)F)cc1NS(=O)(=O)C(F)(F)F [a-109]
- mortality rate against Mythimna separata, or amount of feed consumed relative to control: 100%, or the amount of feed consumed was 10% or less

SMILES: COC(=O)c1cc(OC(F)(F)F)ccc1NC(=O)c1cc(F)c(F)cc1NS(=O)(=O)C(F)(F)F [a-110]
- mortality rate against Mythimna separata, or amount of feed consumed relative to control: 100%, or the amount of feed consumed was 10% or less

SMILES: COC(=O)c1cc(C(F)(F)F)ccc1NC(=O)c1cc(F)c(F)cc1NS(=O)(=O)C(F)(F)F [a-111]
- mortality rate against Mythimna separata, or amount of feed consumed relative to control: 100%, or the amount of feed consumed was 10% or less

SMILES: COC(=O)c1cc(C(F)(F)F)ccc1NC(=O)c1cc(Br)c(Cl)cc1NS(=O)(=O)C(F)(F)F [a-112]
- mortality rate against Mythimna separata, or amount of feed consumed relative to control: 100%, or the amount of feed consumed was 10% or less

SMILES: COC(=O)c1cc([N+](=O)[O-])ccc1NC(=O)c1cc(F)c(F)cc1NS(=O)(=O)C(F)(F)F [a-113]
- mortality rate against Mythimna separata, or amount of feed consumed relative to control: 100%, or the amount of feed consumed was 10% or less

SMILES: CON=Cc1cc(Cl)ccc1NC(=O)c1ccc(C(F)(F)F)cc1NS(=O)(=O)C(F)(F)F [a-115]
- mortality rate against Mythimna separata, or amount of feed consumed relative to control: 100%, or the amount of feed consumed was 10% or less

SMILES: O=C(Nc1cc(F)c(F)cc1F)c1ccc(C(F)(F)F)cc1NS(=O)(=O)C(F)(F)F [a-116]
- mortality rate against Mythimna separata, or amount of feed consumed relative to control: 100%, or the amount of feed consumed was 10% or less

SMILES: O=C(Nc1ccc(C(F)(F)F)cc1)c1ccc(-c2ccc(C(F)(F)F)nc2)cc1NS(=O)(=O)C(F)(F)F [a-118]
- mortality rate against Mythimna separata, or amount of feed consumed relative to control: 100%, or the amount of feed consumed was 10% or less

SMILES: O=C(Nc1ccc(C(F)(F)F)c(F)c1)c1ccc(-c2ccc(C(F)(F)F)nc2)cc1NS(=O)(=O)C(F)(F)F [a-119]
- mortality rate against Mythimna separata, or amount of feed consumed relative to control: 100%, or the amount of feed consumed was 10% or less

SMILES: O=C(Nc1ccc(F)c(C(F)(F)F)c1)c1ccc(-c2ccc(C(F)(F)F)nc2)cc1NS(=O)(=O)C(F)(F)F [a-120]
- mortality rate against Mythimna separata, or amount of feed consumed relative to control: 100%, or the amount of feed consumed was 10% or less

SMILES: O=C(Nc1ccc([N+](=O)[O-])cc1)c1ccc(-c2ccc(C(F)(F)F)nc2)cc1NS(=O)(=O)C(F)(F)F [a-121]
- mortality rate against Mythimna separata, or amount of feed consumed relative to control: 100%, or the amount of feed consumed was 10% or less

SMILES: O=C(Nc1ccc(C(F)(F)F)cc1)c1cc(C(F)(F)F)c(F)cc1NS(=O)(=O)C(F)(F)F [a-122]
- mortality rate against Mythimna separata, or amount of feed consumed relative to control: 100%, or the amount of feed consumed was 10% or less

SMILES: O=C(Nc1ccc(C(F)(F)F)cc1)c1cc(F)c(C(F)(F)F)cc1NS(=O)(=O)C(F)(F)F [a-123]
- mortality rate against Mythimna separata, or amount of feed consumed relative to control: 100%, or the amount of feed consumed was 10% or less
